The source of these data is patent US12365643B2, “Phenoxy carboxylic acid compounds and medical uses thereof” (QINGDAO RISING BIOTECHNOLOGY CO., LTD, priority 2018, dated 2025).

A short description of data set [1]: Metabolism of BJMU-2 by the liver.
For data set [2], the system named is db/db mice. The data set can be described thus: Diabetes mellitus model (db/db mice). To be noted: for blood glucose level: 50 mg/kg intragastric once a day for 28 days (FIG. 7); for AHDL (high density lipoprotein) / ALDL (low density lipoprotein) / ALT / AST / BUN / CHOL (total cholesterol) / CK / CREA / TGL (triglycerides) / fat content in the liver (Oil red O and H.E. staining): intragastric once a day for 28 days; for AHDL (high density lipoprotein) / ALDL (low density lipoprotein) / ALT / AST / BUN / CHOL (total cholesterol) / CK / CREA / TGL (triglycerides): 50 mg/kg (pioglitazone 6 mg/kg); for fat content in the liver (Oil red O and H.E. staining): 50 mg/kg (pioglitazone 6 mg/kg) (FIGS. 8A-8B). It is filed as in vivo, mouse. An excerpt: Animal model: C57BL/KsJ-leprdb/leprdb diabetic (db/db) mice were widely used as animal models of type 2 diabetes mellitus, in which spontaneous mutations of leptin receptor (Leptin receptor, Lepr) caused extreme obesity, polyphagia, diabetes and polyuria. In this experiment, db/db mice (purchased from the Department of Animals, Health Science Center of Peking University) were selected. In the experiment, 28 db/db mice were used, and the animals with blood glucose of about 7-13 mmol/L were selected. […] Intragastric administration was adopted with an administration volume of 10 ml/kg. […] The administration was performed once a day for 28 consecutive days. From the day of oral administration, the physiological changes of the animals were observed every day. Blood glucose was measured every 3 days (Roche blood glucose meter) and blood glucose difference (Δ) was calculated by the following formula: blood glucose difference (Δ)=the blood glucose of the day—the initial blood glucose (the initial blood glucose difference was zero). For mice in each experimental group, blood was collected, serum was separated, and liver was taken for wet-weight measurement after necropsy; liver tissue was taken and fixed for pathological examination, H.E. staining and oil red O staining (Wuhan Zishan Biotechnology Co., Ltd.) were performed, and mouse liver lesions were observed under light microscope; routine examination of blood was performed by Animal Laboratory Department, Health Science Center of Peking University to measure the following indexes: white blood cell count (WBC), red blood cell count (RBC), lymphocyte count (LY), platelet (PLT) and so on; biochemical laboratory examination of blood was performed by Laboratory Medicine, Third Hospital, Peking University to measure the following indexes: triglycerides (TG), total cholesterol (T-CHO), high-density lipoprotein cholesterol (HDL-C), low-density lipoprotein cholesterol (LDL-C) and so on.

Data set [3] concerns phosphorylated GSK3β. The data set can be described thus: Phosphorylated GSK3β level by Western blotting in HepG2. It is filed as cell-based, human. As to conditions: 1 μM, 24 hours, HepG2, Western blotting (FIG. 6B). An excerpt:
Carnitine palmitoyltransferase (CPT1α) is a rate-limiting enzyme of fatty acid oxidation. When the body or tissues are lacking in energy, CPT1α catalyzes the entry of fatty acids into mitochondria for […], and at the same time, CPT1α is also involved in the regulation of fatty acid-induced insulin resistance and inflammation. Protein kinase B/glycogen synthase kinase 3β (AKT/GSK3β) signaling pathway and insulin receptor substrate 1 (IRS-1) are key signaling pathways that regulate glucose metabolism in response to insulin signal. Therefore, by determining the effects of compounds on the CPT1α protein level and the AKT, GSK3β and IRS-1 protein phosphorylation levels, it is possible to evaluate the regulatory effects of the compounds on glycolipid metabolism.
After human liver cancer cells HepG2 were incubated with the compound of the present application or the control drug at 1 μM for 24 hours, the CPT1α protein level and the AKT, GSK3β and IRS-1 phosphorylated protein levels in the cells were determined by Western blotting; after gray-scale scanning by using Image J15.0.1, normalization was performed by using β-tubulin protein level as internal control, and the quantitative analysis results were shown in FIG. 6.
A general note: Immunoblotting shows a protein as a band on a membrane.

Where [4] appears, read: 50 mg/kg intragastric once a day for 28 days.

As to `Cc1cc(OCCCC(C)(C)C(=O)O)c(C)cc1Br` [BJMU-2, 5-(4-bromo-2,5-dimethylphenoxy)-2,2-dimethylpentanoic acid], in data set [1], the “metabolism by the liver” value was “could be metabolized by the liver to produce metabolites BJMU-415 and 502”. Also, in data set [2] (setting [4]), the “activity of lowering triglycerides (in words)” value was “had an activity of lowering triglycerides better than gemfibrozil” and the “total cholesterol content in blood (in words)” value was “could reduce the total cholesterol content in the blood”. For the same compound, in data set [2], the blood glucose level entry is on record as “could significantly reduce the blood glucose level”, the “AHDL (high density lipoprotein)” value stood at 1.59 ± 0.13 mmol/L, the “ALDL (low density lipoprotein)” value is listed as 0.33 ± 0.09 mmol/L and the ALT is 187.75 ± 62.07 U/L. In addition, in data set [2], the AST is on record as 210.75 ± 56.97 U/L, the BUN worked out at 7.23 ± 1.19 mmol/L, the “CHOL (total cholesterol)” value is on record as 3.06 ± 0.63 mmol/L and the CK is given as 1790.75 ± 388.38 U/L. Moreover, in data set [2], the CREA was 10.13 ± 5.25 µmol/L; the “TGL (triglycerides)” value worked out at 1.44 ± 0.42 mmol/L; the “fat content in the liver (Oil red O and H.E. staining)” value is listed as “could significantly reduce the fat content in the liver”. In data set [3], the “phosphorylation level of GSK3β” value is on record as “significantly increased the phosphorylation level of GSK3β”.

`Cc1ccc(C)c(OCCCC(C)(C)C(=O)O)c1` [gemfibrozil, Gemfibrozil, reference compound]: the “total cholesterol content in blood (in words)” value in data set [2] (setting [4]) is “did not show the activity of lowering total cholesterol in blood”. Further, in data set [2], the blood glucose level entry is reported as “did not show obvious hypoglycemic activity”, the “AHDL (high density lipoprotein)” value is recorded as 1.64 ± 0.28 mmol/L, the “ALDL (low density lipoprotein)” value is reported as 0.35 ± 0.02 mmol/L and the ALT is on record as 172.25 ± 123^ U/L. In data set [2], the AST is listed as 225 ± 132.19 U/L, the BUN was determined as 9.56 ± 1.57 mmol/L, the “CHOL (total cholesterol)” value amounted to 3.37 ± 0.36 mmol/L and the CK is 1037 ± 523.17 U/L. Moreover, in data set [2], the CREA came out at 16 ± 10.46 µmol/L; the “TGL (triglycerides)” value came out at 2.09 ± 0.95 mmol/L; the “fat content in the liver (Oil red O and H.E. staining)” value is “neither gemfibrozil nor pioglitazone showed the above activity”.
